*1 amine or outer side, *2 acyl side, *3 side chain or, on linkers, in order; H or OH if unused. Where a SMILES comes first, the peptide text is derived from it. Bridges are numbered along the chain shown (N, C = ends). [ ]: non-standard residue; d: D form. The star is where a group is joined. hPhe(3-Cl-4-CF3) = N[C@@H](CCc1ccc(C(F)(F)F)c(Cl)c1)C(=O)O; X1 = CCCCN([C@@H](Cc1ccc(C)cc1)C(=O)[*:2])[*:1]; NMeGly(cPent) = CN[C@H](C(=O)O)C1CCCC1; NMeD = CN[C@@H](CC(=O)O)C(=O)O; NMeL = CN[C@@H](CC(C)C)C(=O)O; Morpholide = C1CN(*)CCO1; NMeA = CN[C@@H](C)C(=O)O; Ac5c = NC1(C(=O)O)CCCC1; Aze = O=C(O)[C@@H]1CCN1; Sar = CNCC(=O)O
How the values were obtained:
[1] = biological target: HRAS wild-type protein (Homo sapiens, UniProt P01112); assay: Binding to HRAS by surface plasmon resonance (SPR), KD and KD ratio to KRAS
HRAS wild-type protein, sequence (P01112 whole entry): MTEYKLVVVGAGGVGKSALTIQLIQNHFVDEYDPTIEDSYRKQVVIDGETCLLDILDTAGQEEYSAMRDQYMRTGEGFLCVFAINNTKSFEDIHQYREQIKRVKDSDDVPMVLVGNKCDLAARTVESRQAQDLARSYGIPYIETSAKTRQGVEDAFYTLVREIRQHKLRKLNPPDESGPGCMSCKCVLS
Procedure, shortened: (§1)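 Compound binding is evaluated by SPR single-cycle kinetics, with concentrations added intermittently from low to high for 75 s each. Target surfaces carry GDP-loaded biotinylated Avi-RAS at about 100–300 RU, regenerated after each cycle; temperature 30°C. A 1:1 binding model gives KD.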

[2] = biological target: GDP-bound NRAS wild-type protein (Homo sapiens, UniProt P01111); assay: Binding to NRAS by surface plasmon resonance (SPR), KD and KD ratio to KRAS
GDP-bound NRAS wild-type protein, sequence (P01111 whole entry): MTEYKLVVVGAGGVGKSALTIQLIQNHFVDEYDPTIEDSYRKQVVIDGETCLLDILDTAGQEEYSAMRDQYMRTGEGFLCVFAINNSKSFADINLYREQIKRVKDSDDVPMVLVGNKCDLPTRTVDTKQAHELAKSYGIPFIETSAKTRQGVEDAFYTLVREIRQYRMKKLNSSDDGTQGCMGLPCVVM
Procedure, shortened: as §1

[3] = biological target: GDP-bound KRAS wild-type protein (Homo sapiens, UniProt P01116); assay: Binding to KRAS by surface plasmon resonance (SPR), dissociation constant KD
GDP-bound KRAS wild-type protein, sequence (P01116 1-188 isoform P01116-2): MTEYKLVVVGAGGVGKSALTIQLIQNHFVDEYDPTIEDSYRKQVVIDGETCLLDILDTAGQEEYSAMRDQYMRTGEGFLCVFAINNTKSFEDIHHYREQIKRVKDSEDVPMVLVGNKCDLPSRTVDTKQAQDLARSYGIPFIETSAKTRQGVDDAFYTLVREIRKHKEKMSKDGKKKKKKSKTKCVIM
Protocol: Surface plasmon resonance was used to analyze the binding affinity of compounds for KRAS, NRAS, and HRAS. The apparatus used was Biacore 8K, 8K+, or T200 (GE Healthcare), and the running buffer used was HBS (10 mM HEPES-NaOH, 150 mM NaCl, pH 7.4) containing 1 mM DTT, 10 mM MgCl2, 0.01% Tween 20, 10 µM GDP, and 4% DMSO.
Biotinylated Avi-tag fusion KRAS, NRAS, and HRAS proteins were expressed in E. coli BL21 (DE3) strains, and after cells were homogenized, they were purified using Streptavidin Mutein Matrix and Superdex 75. After purification, GDP-loaded KRAS, NRAS, and HRAS proteins were immobilized on the surface of Sensor Chip CAP (Cytiva) coated with Biotin CAPture Reagent in an immobilization amount of about 100 to 300 RU. Binding of each compound was evaluated by the Single Cycle Kinetics method, and a running buffer or a compound solution was added to the RAS protein non-immobilized surface and the immobilized surface to obtain a binding response. The flow rate was set to 100 µL/min, and in the compound-adding cycle, compound solutions having different concentrations were intermittently added for 75 seconds each, starting from a low concentration. […] In the blank cycle, a running buffer was intermittently added and not the compound solution. The Biotin CAPture Reagent and RAS proteins were immobilized for each cycle, and at the end of each cycle, the sensor chip was regenerated by the regeneration solution appended to the Biotin CAPture Kit (Cytiva). Measurement was carried out at 30°C.
The resulting sensorgram was subjected to curve fitting based on a 1:1 binding model on Biacore Insight Evaluation Software or T200 Evaluation Software, and thereby the dissociation constant KD of each compound with respect to KRAS, NRAS, and HRAS was determined. […] Blank indicates a compound from which the KD value with respect to NRAS or HRAS was not obtained.

[4] = system: human lung cancer strain NCI-H441; format: cell-based
Procedure, shortened: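 Proliferation was scored by […] measured after the reagent was added to cultures kept at 37°C in 5% carbon dioxide.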

[5] = ratio of KD for HRAS wild-type protein to KD for KRAS
[6] = ratio of KD for GDP-bound NRAS wild-type protein to KD for KRAS
[7] = Single Cycle Kinetics, 1:1 binding model

SMILES | Kd ([3]; 1:1 binding model) | IC50 [4] | Kd ([3]; Single Cycle Kinetics) | HRAS /KRAS [1, 5] | NRAS /KRAS [2, 6] | also measured
CC[C@H](C)[C@@H]1NC(=O)[C@H](CC)N(C)C(=O)C[C@@H](C(=O)N(C)C)N(C)C(=O)[C@H](C2CCCC2)N(C)C(=O)C2(CCC2)NC(=O)[C@@H]2CCN2C(=O)[C@H](CCc2cc(F)c(C(F)(F)F)c(F)c2)NC(=O)CN(C)C(=O)[C@H](Cc2ccc(C(F)(F)F)cc2)N2CCCCC[C@@H](C2=O)N(C)C(=O)CN(C)C1=O [PP0654] |  | 690 nM |  |  |  | HRAS /KRAS ([1]; ratio of the KD value with respect to HRAS wild-type protein to the KD value with respect to KRAS): B (a compound having 3 or more and less than 10 is denoted as B); NRAS /KRAS ([2]; ratio of the KD value with respect to GDP-bound NRAS wild-type protein to the KD value with respect to KRAS): B (a compound having 3 or more and less than 10 is denoted as B); Kd [3, 7]: 2 nM
CC[C@H](C)[C@@H]1NC(=O)[C@H](CC(C)C)N(C)C(=O)C[C@@H](C(=O)N2CCOCC2)N(C)C(=O)[C@H](C2CCCC2)N(C)C(=O)C2(CCC2)NC(=O)[C@@H]2[C@@H](O)CCN2C(=O)[C@H](CCc2cc(F)c(C(F)(F)F)c(F)c2)NC(=O)CN(C)C(=O)[C@H](Cc2ccc(C(F)(F)F)cc2)N2CCCCC[C@@H](C2=O)N(C)C(=O)CN(C)C1=O [PP0872] |  | 2600 nM | 1.7 nM |  |  | 
CCO[C@@H]1C[C@H]2C(=O)NC3(CCC3)C(=O)N(C)[C@@H](C(CC)CC)C(=O)N(C)[C@H](C(=O)N(C)C)CC(=O)N(C)[C@@H](C)C(=O)N[C@@H]([C@@H](C)CC)C(=O)N(C)CC(=O)N(C)[C@H]3C/C=C\CCN(C3=O)[C@@H](Cc3ccc(C(F)(F)F)cc3)C(=O)N(C)CC(=O)N[C@@H](CCc3ccc(C(F)(F)F)c(OC)c3)C(=O)N2C1 [PP1206] |  |  |  |  |  | HRAS /KRAS ([1]; ratio of KD with respect to HRAS wild-type protein to KD with respect to KRAS): A (a compound having 10 or more and less than 20 is denoted as A); NRAS /KRAS ([2]; ratio of KD with respect to GDP-bound NRAS wild-type protein to KD with respect to KRAS): AA (a compound having 20 or more is denoted as AA); Kd [3, 7]: 0.17 nM
C=CCCCC[C@H]1C(=O)N[C@@H]([C@@H](C)CC)C(=O)N(C)CC(=O)N(C)[C@H]2CCCCCN(C2=O)[C@@H](Cc2ccc(C(F)(F)F)cc2)C(=O)N(C)CC(=O)N[C@@H](CCc2cc(F)c(C(F)(F)F)c(F)c2)C(=O)N2C[C@H](OCC)C[C@H]2C(=O)N[C@](C)(CC=C)C(=O)N(C)[C@@H](C2CCCC2)C(=O)N(C)[C@H](C(=O)N2CCOCC2)CC(=O)N1C [PP0881] |  | 374 nM | 5.5 nM |  |  | 
CC[C@H](C)[C@@H]1NC(=O)[C@H](CC(C)C)N(C)C(=O)C[C@@H](C(=O)N2CCOCC2)N(C)C(=O)[C@H](C2CCCC2)N(C)C(=O)C2(CCC2)NC(=O)[C@@H]2C[C@@H](O)CN2C(=O)[C@H](CCc2cc(F)c(C(F)(F)F)c(F)c2)NC(=O)CN(C)C(=O)[C@H](Cc2ccc(C(F)(F)F)cc2)N2CCCCC[C@@H](C2=O)N(C)C(=O)CN(C)C1=O [PP0871] |  | 438 nM | 0.4 nM |  |  | 
CC[C@H](C)[C@@H]1NC(=O)[C@H](CC(C)C)N(C)C(=O)C[C@@H](C(=O)N(C)C)N(CCC2CCCC2)C(=O)[C@H](C2CCCC2)N(C)C(=O)C2(CCCC2)NC(=O)[C@@H]2CCCN2C(=O)[C@H](CCc2ccc(C(F)(F)F)c(Cl)c2)NC(=O)CN(C)C(=O)[C@H](Cc2ccc(F)cc2)N2CCCCC[C@@H](C2=O)N(C)C(=O)CN(C)C1=O [PP0975] |  | 1570 nM | 8.9 nM |  |  | 

More lines, main results first:

Kd ([3]; 1:1 binding model) | IC50 [4] | Kd ([3]; Single Cycle Kinetics) | SMILES | HRAS /KRAS [1, 5] | NRAS /KRAS [2, 6] | also measured
0.41 nM | 18.2 nM |  | CCC[C@H]1C(=O)N[C@@H](C2CCCC2)C(=O)N(C)CC(=O)N(C)[C@H]2C/C=C\CCN(C2=O)[C@@H](Cc2ccc(C)cc2)C(=O)N(C)CC(=O)N[C@@H](CCc2ccc(C(F)(F)F)c(OC)c2)C(=O)N2CC3(CC3)C[C@H]2C(=O)NC2(CC(C)(C)C2)C(=O)N(C)[C@@H](CC(C)(C)C)C(=O)N(C)[C@H](C(=O)N(C)C)CC(=O)N1C [PP3010] | B (a compound having 3 or more and less than 10 is denoted as B) | B (a compound having 3 or more and less than 10 is denoted as B) | 
 | 53.6 nM | 0.62 nM | CC[C@H](C)[C@@H]1NC(=O)[C@H](Cc2ccccc2)N(C)C(=O)C[C@@H](C(=O)N2CCOCC2)N(C)C(=O)[C@H](C2CCCC2)N(C)C(=O)C2(CCCC2)NC(=O)[C@@H]2CCCN2C(=O)[C@H](CCc2ccc(C(F)(F)F)c(Cl)c2)NC(=O)CN(C)C(=O)[C@H](Cc2ccc(F)cc2)N2CCCCC[C@@H](C2=O)N(C)C(=O)CN(C)C1=O [PP0961] | B (a compound having 3 or more and less than 10 is denoted as B) | B (a compound having 3 or more and less than 10 is denoted as B) | 
1 nM | 37 nM |  | CCC[C@H]1C(=O)N[C@@H]([C@@H](C)CC)C(=O)N(C)CC(=O)N(C)[C@H]2C/C=C\CCN(C2=O)[C@@H](Cc2ccc(C)cc2)C(=O)N(C)CC(=O)N[C@@H](CCc2cc(Cl)c3c(ccn3C)c2)C(=O)N2C[C@H](OCC)C[C@H]2C(=O)NC2(CC(C)(C)C2)C(=O)N(C)[C@@H](C2CCCC2)C(=O)N(C)[C@H](C(=O)N(C)C)CC(=O)N1C [PP2951] | A (a compound having 10 or more and less than 20 is denoted as A) | A (a compound having 10 or more and less than 20 is denoted as A) | 
0.8 nM | 49.6 nM |  | CCO[C@@H]1C[C@H]2C(=O)NC3(CC(C)(C)C3)C(=O)N(C)[C@@H](C3CCCC3)C(=O)N(C)[C@H](C(=O)N(C)C)CC(=O)N(C)[C@@H]([C@H](C)OC)C(=O)N[C@@H]([C@@H](C)CC)C(=O)N3CCC[C@H]3C(=O)N(C)[C@H]3C/C=C\CCN(C3=O)[C@@H](Cc3ccc(C)cc3)C(=O)N(C)CC(=O)N[C@@H](CCc3cc(F)c(C(F)(F)F)c(F)c3)C(=O)N2C1 [PP3199] | A (a compound having 10 or more and less than 20 is denoted as A) | A (a compound having 10 or more and less than 20 is denoted as A) | 
1.3 nM | 38.6 nM |  | CCC(CC)[C@H]1C(=O)N(C)[C@H](C(=O)N(C)C)CC(=O)N(C)[C@@H](COC)C(=O)N[C@@H]([C@@H](C)CC)C(=O)N(C)CC(=O)N(C)[C@H]2C/C=C\CCN(C2=O)[C@@H](Cc2ccc(C)cc2)C(=O)N(C)CC(=O)N[C@@H](CCc2ccc(Cl)c(Cl)c2)C(=O)N2CCCCC[C@H]2C(=O)NC2(CC(C)(C)C2)C(=O)N1C [PP2974] | A (a compound having 10 or more and less than 20 is denoted as A) | A (a compound having 10 or more and less than 20 is denoted as A) | 
0.12 nM | 16.1 nM |  | CCO[C@@H]1C[C@H]2C(=O)NC3(CC(C)(C)C3)C(=O)N(C)[C@@H](C3CCCC3)C(=O)N(C)[C@H](C(=O)N(C)C)CC(=O)N(C)[C@@H]([C@H](C)OC)C(=O)N[C@@H]([C@@H](C)CC)C(=O)N(C)CC(=O)N(C)[C@H]3C/C=C\CCN(C3=O)[C@@H](Cc3ccc(C)cc3)C(=O)N(C)CC(=O)N[C@@H](CCc3ccc(C(F)(F)F)c(OC)c3)C(=O)N2C1 [PP3185] | A (a compound having 10 or more and less than 20 is denoted as A) | A (a compound having 10 or more and less than 20 is denoted as A) | 
0.27 nM | 3.5 nM |  | CCCCN1C(=O)[C@@H]2CCN2C(=O)[C@H](C)N(C)C(=O)[C@H]([C@@H](C)CC)NC(=O)[C@H](CC(C)C)N(C)C(=O)C[C@@H](C(=O)N2CCOCC2)N(C)C(=O)[C@H](C2CCCC2)N(C)C(=O)C2(CCCC2)NC(=O)[C@@H]2CCCN2C(=O)[C@H](CCc2ccc(C(F)(F)F)c(Cl)c2)NC(=O)CN(C)C(=O)[C@@H]1Cc1ccc(C)cc1 [PP0055] ([NMeL]I[NMeA][Aze][X1][Sar][hPhe(3-Cl-4-CF3)]P[Ac5c][NMeGly(cPent)][NMeD]-Morpholide; lactam N-11) |  |  | 
 | 102 nM | 1.1 nM | CC[C@H](C)[C@@H]1NC(=O)[C@H](CC(C)C)N(C)C(=O)C[C@@H](C(=O)N2CCOCC2)N(C)C(=O)[C@H](C2CCCC2)N(C)C(=O)C2(CCC2)NC(=O)[C@@H]2[C@@H](OCCC(F)(F)F)CCN2C(=O)[C@H](CCc2cc(F)c(C(F)(F)F)c(F)c2)NC(=O)CN(C)C(=O)[C@H](Cc2ccc(C(F)(F)F)cc2)N2CCCCC[C@@H](C2=O)N(C)C(=O)CN(C)C1=O [PP1008] |  |  | 
